Measurements as given in patent US20090117215A1, “EXTRACT OF CERATONIA SILIQUA LEAVES AND PODS CONTAINING POLYPHENOLS WITH ANTIOXIDANT AND ANTITUMOR ACTIVITIES” (priority 2001, published 2009).

Legend:
[1] = system: T1 cells (liver tumour cells); test: Cell proliferation assay (MTS) in T1 hepatic tumour cells; type: cell-based, mice; details: for concentration at which proliferation is already inhibited / concentration reaching the peak activity (inhibition of proliferation): hepatic tumour cell cultures (T1), 24 and 48 hours exposure; for inhibition of cell proliferation in liver tumour cells: FIG. 1, after 24 and 48 hours exposure
Procedure: (§1) Tumour cell cultures (T1) used in the tests derive from transgenic mice hepatocellular carcinoma, in which an over-expression of the c-myc and TGFα had been induced. Cells were kept in L-glutamine-free DMEM medium, HAM F 12 containing 1 mg/ml galactose, 18 mM HEPES, 5 mM Na piruvate, 30 mg/M1 proline, ITS 100×, 2 mM glutamine, 0.1% gentamicin (Sigma-Aldrich, Italy) and added with 10% FBS. Cell lines were cultured in polystyrene plates (Dasit, Italy).
T1 cells were plated in 96 wells-plates at a concentration of 10,000 cells/well and left to sediment for 4-5 hours. Cells were then incubated in EGCG or ECG at a concentration of 20, 40, 60, 80, 160 μg/ml for 24 and 48 hours. The substances were diluted in the culture medium starting from stock solutions (aqueous solution for EGCG and aqueous-ethanol solution (1:1) for ECG). Control cells were treated with solutions containing ethanol in amounts corresponding to that of the samples containing catechins. After 24 or 48 hours, the proliferation was calorimetrically measured using a specific kit (Cell Titer Aqueous Cell Proliferation Assay, Promega) which makes use of a calorimetric transformation reaction of colourless MTS (tetrazolium salt) into coloured formazan by living, proliferating cells. Formazan quantitation was carried out by spectrophotometric analysis at λ=490 nm.

caspase 3 = test: Evaluation of caspase 3 activation in T1 cell lysates; type: cell-based, mice; details: 80 μg/ml, compared with untreated cells; FIG. 2
Procedure: as §1
Caspase 3 protease activity in cells lysates was determined using a Promega kit. T1 Cells were treated with EGCG and ECG (80 μg/ml) alone or in combination with a caspase inhibitor (Z-VAD-FMK) for 24 or 48 hours. Afterwards a calorimetric substrate (DEVD-pNA) able to evidence the protease activity was added. After incubation for 4 hours at 37° C., the protease activity was determined by spectrophotometric analysis at λ=405 nm.

Row | Compound | concentration at which proliferation is already inhibited [1] [µg/mL] | concentration reaching the peak activity (inhibition of proliferation) [1] [µg/mL] | caspase 3 protease activity (caspase 3) | inhibition of cell proliferation in liver tumour cells [1]
1 | O=C(O[C@@H]1Cc2c(O)cc(O)cc2O[C@@H]1c1ccc(O)c(O)c1)c1cc(O)c(O)c(O)c1 [ECG, (−)-epicatechin-3-gallate] | 40 | 80 | activation | –
2 | O=C(O[C@@H]1Cc2c(O)cc(O)cc2O[C@@H]1c1cc(O)c(O)c(O)c1)c1cc(O)c(O)c(O)c1 [EGCG, (−)-epigallocatechin-3-gallate] | 40 | 80 | activation | dose-dependent
3 | Oc1cc(O)c2c(c1)O[C@H](c1cc(O)c(O)c(O)c1)[C@H](O)C2 [EGC, epigallocatechin] | – | – | – | dose-dependent
